Assay results: publication PMC3961306, “Comparison of the Cancer Gene Targeting and Biochemical Selectivities of All Targeted Kinase Inhibitors Approved for Clinical Use” (PLoS ONE, 2014)
pIC50: −log10 of the molar value. Where two headings read alike, the source gives them in different places.

Tests used:
[1] = biological target: panel of more than 300 wild-type and mutant kinases (313 kinase panel) (Homo sapiens, UniProt P11362, V561M); experiment: Kinase profiling in a biochemical assay panel (mobility shift assays and ELISA), %-inhibition at 1 μM; selectivity entropy; details: kinase FGFR1(V561M); compound at 1 μM
[2] = tested on: forty-four human cancer cell lines; experiment: Cell proliferation assay (ATPlite, 72 hours) in the 44 cell line Oncolines panel; assay type: cell-based; details: Homo sapiens
[3] = biological target: panel of more than 300 wild-type and mutant kinases (313 kinase panel) (Homo sapiens, UniProt P15056); experiment: Kinase profiling in a biochemical assay panel (mobility shift assays and ELISA), %-inhibition at 1 μM; selectivity entropy; details: kinase BRAF; 1 μM compound
[4] = biological target: panel of more than 300 wild-type and mutant kinases (313 kinase panel) (Homo sapiens, UniProt P07947, T348I); experiment: as above; details: kinase YES(T348I); compound at 1 μM
[5] = biological target: panel of more than 300 wild-type and mutant kinases (313 kinase panel) (Homo sapiens, UniProt P22612); experiment: as above; details: kinase PKACγ; 1 μM
[6] = biological target: panel of more than 300 wild-type and mutant kinases (313 kinase panel) (Homo sapiens, UniProt P15056, V600E); experiment: as above; details: kinase BRAF(V600E); 1 μM compound
[7] = A498, read-out: cell panel IC50, A-498
[8] = A549, read-out: cell panel IC50, A-549
[9] = A-427, read-out: cell panel IC50, A-427
[10] = AU565, read-out: cell panel IC50, AU-565
[11] = BT-549, read-out: cell panel IC50, BT-549
[12] = HCT-116, read-out: cell panel IC50, HCT-116
[13] = K562, read-out: cell panel IC50, K-562
[14] = LS174T, read-out: cell panel IC50, LS 174T

CC(C)(C)c1nc(-c2cccc(NS(=O)(=O)c3c(F)cccc3F)c2F)c(-c2ccnc(N)n2)s1 [dabrafenib]
%-inhibition of FGFR1(V561M) [1]: -0.282%
pIC50 ([2]; A 172, read-out: cell panel IC50, A-172): 5.46
pIC50 ([2]; A204, cell line A-204, read-out: cell panel IC50, A-204): 5.33
pIC50 [2, 7]: 5.64
pIC50 [2, 8]: 5.39
pIC50 ([2]; A-375, cell line A375, read-out: cell panel IC50, A375): 7.59
pIC50 [2, 9]: 5.46
pIC50 [2, 10]: 5.23
pIC50 [2, 11]: 5.24
pIC50 [2, 12]: 6.07
pIC50 [2, 13]: 4.87
pIC50 [2, 14]: < 4.50
pIC50 ([2]; SHP77, cell line SHP-77, read-out: cell panel IC50, SHP-77): 4.54
pIC50 ([2]; SW-620, cell line SW620, read-out: cell panel IC50, SW620): 5.61
pIC50 ([2]; U2OS, cell line U-2 OS, read-out: cell panel IC50, U-2 OS): < 4.50
pIC50 ([2]; cell line J82, read-out: cell panel IC50, J82): < 4.50
pIC50 ([2]; cell line PA-1, read-out: cell panel IC50, PA-1): 5.68
pIC50 ([2]; cell line SJCRH30, read-out: cell panel IC50, SJCRH30): < 4.50
pIC50 ([2]; cell line SR, read-out: cell panel IC50, SR): 5.67
pIC50 ([2]; U-87 MG cell line, ATPlite, 72 hours, read-out: IC50 in cell proliferation assay (table S5 cellpanel data)): < 4.50
pIC50 ([2]; cell line 769-P, read-out: cell panel IC50, 769-P): 4.96
pIC50 ([2]; cell line 786-0, read-out: cell panel IC50, 786-0): 5.48
pIC50 ([2]; cell line ACHN, read-out: cell panel IC50, ACHN): 5.94
pIC50 ([2]; cell line AN3 CA, read-out: cell panel IC50, AN3 CA): < 4.50
pIC50 ([2]; cell line BT-20, read-out: cell panel IC50, BT-20): < 4.50
pIC50 ([2]; cell line BxPC-3, read-out: cell panel IC50, BxPC-3): 5.57
pIC50 ([2]; cell line C-33 A, read-out: cell panel IC50, C-33 A): 5.48
pIC50 ([2]; cell line CAL 27, read-out: cell panel IC50, CAL 27): 4.51
pIC50 ([2]; cell line CCRF-CEM, read-out: cell panel IC50, CCRF-CEM): < 4.50
pIC50 ([2]; cell line DLD-1, read-out: cell panel IC50, DLD-1): 5.41
pIC50 ([2]; cell line FaDu, read-out: cell panel IC50, FaDu): 5.36
pIC50 ([2]; cell line HCT-15, read-out: cell panel IC50, HCT-15): 5.48
pIC50 ([2]; cell line Hs 578T, read-out: cell panel IC50, Hs 578T): 4.94
pIC50 ([2]; cell line Jurkat E6.1, read-out: cell panel IC50, Jurkat E6.1): 5.51
pIC50 ([2]; cell line LoVo, read-out: cell panel IC50, LoVo): 5.73
pIC50 ([2]; cell line MG-63, read-out: cell panel IC50, MG-63): < 4.50
pIC50 ([2]; cell line MOLT-4, read-out: cell panel IC50, MOLT-4): 4.54
pIC50 ([2]; cell line MeWo, read-out: cell panel IC50, MeWo): 5.19
pIC50 ([2]; cell line NCI-H82, read-out: cell panel IC50, NCI-H82): 5.59
pIC50 ([2]; cell line NCI-H460, read-out: cell panel IC50, NCI-H460): 5.53
pIC50 ([2]; cell line OVCAR-3, read-out: cell panel IC50, OVCAR-3): 5.28
pIC50 ([2]; cell line RPMI-7951, read-out: cell panel IC50, RPMI-7951): 7.62
pIC50 ([2]; cell line SK-N-AS, read-out: cell panel IC50, SK-N-AS): 5.45
pIC50 ([2]; cell line SW48, read-out: cell panel IC50, SW48): 4.97
pIC50 ([2]; cell line SW480, read-out: cell panel IC50, SW480): 4.78

COc1cc2c(Nc3ccc(Br)cc3F)ncnc2cc1OCC1CCN(C)CC1 [vandetanib]
%-inhibition, BRAF [3]: 24%
%-inhibition of YES(T348I) [4]: 100%
%-inhibition of PKACγ [5]: 6%
%-inhibition, BRAF(V600E) [6]: 18%
pIC50 ([2]; 4-4 cell, read-out: cell panel IC50, J82): 5.29
pIC50 ([2]; 4-4 cell, read-out: cell panel IC50, SJCRH30): 5.40
pIC50 ([2]; 4-4 cell, read-out: cell panel IC50, SR): 5.38
pIC50 ([2]; 769-P, read-out: cell panel IC50, 769-P): 5.91
pIC50 ([2]; 786-0, read-out: cell panel IC50, 786-0): 5.36
pIC50 ([2]; A204, read-out: cell panel IC50, A-204): 5.60
pIC50 [2, 7]: 5.48
pIC50 [2, 8]: 5.26
pIC50 ([2]; A-375, read-out: cell panel IC50, A375): 5.49
pIC50 [2, 9]: 5.59
pIC50 ([2]; ACHN, read-out: cell panel IC50, ACHN): 5.64
pIC50 ([2]; AN3-CA, read-out: cell panel IC50, AN3 CA): 6.31
pIC50 [2, 10]: 5.45
pIC50 ([2]; BT-20, read-out: cell panel IC50, BT-20): 4.83
pIC50 [2, 11]: 5.00
pIC50 ([2]; BXPC-3, read-out: cell panel IC50, BxPC-3): 5.68
pIC50 ([2]; C-33-A, read-out: cell panel IC50, C-33 A): 6.19
pIC50 ([2]; CAL-27, read-out: cell panel IC50, CAL 27): 6.00
pIC50 ([2]; CCRF-CEM, read-out: cell panel IC50, CCRF-CEM): 5.18
pIC50 ([2]; DLD-1, read-out: cell panel IC50, DLD-1): 5.22
pIC50 ([2]; FaDu, read-out: cell panel IC50, FaDu): 5.89
pIC50 ([2]; HCT-15, read-out: cell panel IC50, HCT-15): 5.13
pIC50 [2, 12]: 5.03
pIC50 ([2]; Hs-578T, read-out: cell panel IC50, Hs 578T): 5.41
pIC50 ([2]; Jurkat E6.1, read-out: cell panel IC50, Jurkat E6.1): 5.40
pIC50 [2, 13]: 6.04
pIC50 [2, 14]: 5.55
pIC50 ([2]; LoVo, read-out: cell panel IC50, LoVo): 5.84
pIC50 ([2]; MG-63, read-out: cell panel IC50, MG-63): 5.19
pIC50 ([2]; MOLT-4, read-out: cell panel IC50, MOLT-4): 5.47
pIC50 ([2]; MeWo, read-out: cell panel IC50, MeWo): 5.26
pIC50 ([2]; NCI-H82, read-out: cell panel IC50, NCI-H82): 5.14
pIC50 ([2]; NCI-H460, read-out: cell panel IC50, NCI-H460): 4.92
pIC50 ([2]; OVCAR-3, read-out: cell panel IC50, OVCAR-3): 5.51
pIC50 ([2]; RPMI-7951, read-out: cell panel IC50, RPMI-7951): 5.38
pIC50 ([2]; SHP77, read-out: cell panel IC50, SHP-77): 4.84
pIC50 ([2]; SK-N-AS, read-out: cell panel IC50, SK-N-AS): 5.37
pIC50 ([2]; SW48, read-out: cell panel IC50, SW48): < 4.50
pIC50 ([2]; SW480, read-out: cell panel IC50, SW480): 4.86
pIC50 ([2]; SW-620, read-out: cell panel IC50, SW620): 4.79
pIC50 ([2]; U2OS, read-out: cell panel IC50, U-2 OS): 5.39
pIC50 ([2]; U-87 MG, 72 h, read-out: IC50 in cell proliferation assay (table S5 cellpanel data)): 5.13
